Earlier results as cited in patent publication US20210069064A1, “A MANUFACTURING METHOD OF AN HERBAL MEDICINAL TABLET FORMULATION FOR TREATING OBESITY WHICH CAN BE […] ON SASANG CONS[…]” (NUBEBE CO., LTD., priority 2017, published 2021).

Settings: taken for 20 weeks or more

In the case of `CN[C@@H](C)[C@H](O)c1ccccc1` [ephedrine], the “weight and body fat change compared to the control group” value is listed as “weight and body fat loss”.
